Experiments:
[1] = test system: female Sprague-Dawley rats, oxazolone (OX) contact dermatitis; experiment: In Vivo Inflammation Assay (oxazolone contact dermatitis model); design: key to Inflammation Assay Glucose Effect / GL *: +: the glucose level increased compared to vehicle; −: the glucose level decreased compared to vehicle; details: Table 4, literature compounds
Procedure: In Vivo Inflammation Assay
Intact adult (6 month old) female Sprague-Dawley rats are used in the oxazolone (OX) contactdermatitis model. Rats were sensitized on the ventral abdomen with OX on Day 0. On Days 7 and 9, a randomly-selected ear was challenged (same ear each time) with OX; the other was treated with vehicle. Daily treatment begun on Day 7 and continued for 7d with test compounds at different doses and 1.3 mpk 6-methlyprednisolone or 0.1 mpk DEX as positive controls. The thickness of both ears are measured on Days 11 and 14. Necropsy occurred on Day 14. The rat is first weighed, then anesthetized in a CO2 chamber until near death. Approximately 5 ml whole blood is obtained by cardiac puncture. The rat is then examined for certain signs of death and completeness. Tissues are dissected in a highly stylized fashion. Then the following endpoints were evaluated: a) inhibiting ear inflammation induced by oxazalone, b) raising serum insulin, c) reducing serum ACTH, d) reducing spleen weight, e) reducing skin thickness, f) reducing body weight, g) increasing expression of bone-related genes with potential relationship to negative glucocorticoid effects on bone; e) changes in molecular markers that correlate with skin inflammation, skin thinning, muscle atrophy and glucose metabolism in liver. All blood samples were collected between 1330-1530 hours, ˜4-5 hrs after the last compound treatment.
Primary data for this assay are left and right ear thickness. Inter-ear thickness difference (etd) is used for the estimating the level of inflammation and effectiveness of the compounds is determined by their ability to reduce the increase the thickness of the inflamed ear. Back of the rat skin thickness, spleen weight, serum insulin as well as the effects of gcs on the expression of molecular markers in skin inflammation, skin atrophy, muscle atrophy and glucose metabolism in liver are measured. Data are analyzed by anova plus fisher plsd post-hoc test to identify intergroup differences.

[2] = Solubility at pH 2; assay type: physicochemical; details: Table 4, literature compounds

## C[C@]12Cc3cnn(-c4ccc(F)cc4)c3C=C1CCC[C@@H]2[C@@H](O)c1ccc(F)cc1 [Ex. 32 WO 03/086294 A2, reference compound]
[1]; anti-inflammatory effect
  AI*: + (the anti-inflammatory activity was equal to or greater than 40% of the effect generated by the control compound)
[1]; glucose effect
  GL *: +
[2]
  solubility: poor
